Data taken from ChEMBL document CHEMBL5376027, “Discovery of 5-trifluoromethyl-2-aminopyrimidine derivatives as potent dual inhibitors of FLT3 and CHK1” (RSC Med Chem, 2024).
Active and inactive are the calls of the source. No cut-off for these calls is given here.

What was measured:
[1] = biological target: Mast/stem cell growth factor receptor Kit (Homo sapiens, UniProt P10721)
Description: Inhibition of c-kit (unknown origin) using peptide substrate incubated for 1 hrs in presence of ATP by fluorescence microplate reader analysis

[2] = biological target: T1, Serine/threonine-protein kinase Chk1 (Homo sapiens, UniProt O14757)
T1 sequence (O14757 whole entry): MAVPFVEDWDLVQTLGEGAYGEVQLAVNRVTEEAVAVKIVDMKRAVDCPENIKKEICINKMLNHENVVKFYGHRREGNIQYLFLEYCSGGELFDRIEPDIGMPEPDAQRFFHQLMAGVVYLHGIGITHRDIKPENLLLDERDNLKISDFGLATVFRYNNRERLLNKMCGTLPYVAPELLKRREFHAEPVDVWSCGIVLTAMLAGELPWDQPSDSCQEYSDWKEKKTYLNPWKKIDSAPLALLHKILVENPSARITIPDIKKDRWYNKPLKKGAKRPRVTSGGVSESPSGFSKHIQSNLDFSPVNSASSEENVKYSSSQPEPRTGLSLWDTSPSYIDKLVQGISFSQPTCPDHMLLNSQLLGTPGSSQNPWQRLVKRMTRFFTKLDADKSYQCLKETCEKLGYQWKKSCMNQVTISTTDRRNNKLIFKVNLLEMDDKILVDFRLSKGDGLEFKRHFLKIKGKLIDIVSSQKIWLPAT
Description: Inhibition of CHK1 (unknown origin) using peptide substrate incubated for 1 hrs in presence of ATP by fluorescence microplate reader analysis

hERG (KCNH2) = hERG (KCNH2) (Homo sapiens, UniProt Q12809); assay: Inhibition of hERG expressed in HEK293 cells at 10 uM incubated by patch clamp assay relative to control; type: toxicity, cell-based; conditions: HEK293 cells that express hERG
[3] = biological target: T2, Tyrosine-protein kinase JAK3 (Homo sapiens, UniProt P52333); assay: Inhibition of JAK3 (unknown origin) using peptide substrate incubated for 1 hrs in presence of ATP by fluorescence microplate reader
T2 sequence (P52333 whole entry): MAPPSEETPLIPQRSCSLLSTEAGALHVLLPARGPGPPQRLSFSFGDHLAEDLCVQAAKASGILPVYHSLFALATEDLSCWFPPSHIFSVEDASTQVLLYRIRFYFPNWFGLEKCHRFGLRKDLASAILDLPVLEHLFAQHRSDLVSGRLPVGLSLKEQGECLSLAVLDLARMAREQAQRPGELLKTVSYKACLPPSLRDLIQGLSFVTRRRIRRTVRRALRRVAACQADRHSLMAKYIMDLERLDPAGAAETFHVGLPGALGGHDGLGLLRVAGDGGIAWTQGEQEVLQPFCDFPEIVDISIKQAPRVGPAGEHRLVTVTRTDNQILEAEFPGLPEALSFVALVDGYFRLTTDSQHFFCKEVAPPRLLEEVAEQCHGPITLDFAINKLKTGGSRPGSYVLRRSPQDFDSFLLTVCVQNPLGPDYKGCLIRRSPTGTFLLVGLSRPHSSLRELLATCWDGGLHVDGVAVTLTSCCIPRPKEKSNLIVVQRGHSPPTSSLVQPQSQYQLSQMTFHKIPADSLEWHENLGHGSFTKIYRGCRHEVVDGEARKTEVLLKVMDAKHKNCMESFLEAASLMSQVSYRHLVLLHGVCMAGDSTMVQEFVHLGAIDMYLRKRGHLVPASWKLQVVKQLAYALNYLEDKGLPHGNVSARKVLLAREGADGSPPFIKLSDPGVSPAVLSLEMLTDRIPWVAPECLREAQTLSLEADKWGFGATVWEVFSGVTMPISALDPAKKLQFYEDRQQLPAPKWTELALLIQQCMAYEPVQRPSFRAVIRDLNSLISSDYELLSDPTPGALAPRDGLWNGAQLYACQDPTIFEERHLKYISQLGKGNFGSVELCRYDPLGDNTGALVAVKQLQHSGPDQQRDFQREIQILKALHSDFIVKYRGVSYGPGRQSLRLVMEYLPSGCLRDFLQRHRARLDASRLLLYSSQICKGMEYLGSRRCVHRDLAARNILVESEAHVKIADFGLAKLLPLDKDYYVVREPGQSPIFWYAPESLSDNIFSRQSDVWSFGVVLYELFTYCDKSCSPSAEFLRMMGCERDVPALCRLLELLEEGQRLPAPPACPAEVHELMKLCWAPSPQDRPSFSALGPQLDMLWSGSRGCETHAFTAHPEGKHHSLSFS

[4] = biological target: Serine/threonine-protein kinase pim-1 (Homo sapiens, UniProt P11309); assay: Inhibition of PIM1 (unknown origin) using peptide substrate incubated for 1 hrs in presence of ATP by fluorescence microplate reader
[5] = biological target: T3, Interleukin-1 receptor-associated kinase 4 (Homo sapiens, UniProt Q9NWZ3); assay: Inhibition of IRAK4 (unknown origin) using peptide substrate incubated for 1 hrs in presence of ATP by fluorescence microplate reader
T3 sequence (Q9NWZ3 whole entry): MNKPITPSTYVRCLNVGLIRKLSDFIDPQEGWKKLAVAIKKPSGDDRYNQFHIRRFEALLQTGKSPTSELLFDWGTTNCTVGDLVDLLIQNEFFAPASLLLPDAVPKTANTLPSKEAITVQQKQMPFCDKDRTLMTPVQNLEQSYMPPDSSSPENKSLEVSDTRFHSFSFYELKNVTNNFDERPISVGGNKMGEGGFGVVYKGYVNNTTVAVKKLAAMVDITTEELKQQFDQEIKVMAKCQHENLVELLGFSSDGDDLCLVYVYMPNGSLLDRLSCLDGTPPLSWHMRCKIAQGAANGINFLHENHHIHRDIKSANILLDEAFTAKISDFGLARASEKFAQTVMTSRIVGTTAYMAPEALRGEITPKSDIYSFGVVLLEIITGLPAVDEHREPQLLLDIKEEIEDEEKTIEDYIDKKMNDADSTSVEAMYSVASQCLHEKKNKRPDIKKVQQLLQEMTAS

[6] = biological target: Ribosomal protein S6 kinase; assay: Inhibition of p70S6K (unknown origin) using peptide substrate incubated for 1 hrs in presence of ATP by fluorescence microplate reader; type: protein assay, Homo sapiens
Aurora kinase A = biological target: T4, Aurora kinase A (Homo sapiens, UniProt O14965); assay: Inhibition of Aurora A (unknown origin) expressed in Escherichia coli using peptide substrate incubated for 1 hrs in presence of ATP by fluorescence microplate reader
T4 sequence (O14965 whole entry): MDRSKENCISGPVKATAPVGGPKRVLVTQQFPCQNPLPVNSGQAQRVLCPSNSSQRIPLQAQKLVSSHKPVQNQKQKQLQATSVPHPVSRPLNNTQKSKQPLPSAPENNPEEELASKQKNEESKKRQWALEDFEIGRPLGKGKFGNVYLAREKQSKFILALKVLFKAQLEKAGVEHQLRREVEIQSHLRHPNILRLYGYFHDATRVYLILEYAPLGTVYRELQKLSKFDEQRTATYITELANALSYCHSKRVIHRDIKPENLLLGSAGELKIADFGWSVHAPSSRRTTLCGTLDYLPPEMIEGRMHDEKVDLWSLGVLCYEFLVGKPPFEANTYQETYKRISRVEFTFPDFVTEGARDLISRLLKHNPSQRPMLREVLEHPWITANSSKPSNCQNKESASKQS

[7] = biological target: Epidermal growth factor receptor (Homo sapiens, UniProt P00533); assay: Inhibition of EGFR (unknown origin) using peptide substrate incubated for 1 hrs in presence of ATP by fluorescence microplate reader
[8] = biological target: Cyclin-dependent kinase 2 (Homo sapiens, UniProt P24941); assay: Inhibition of CDK2 (unknown origin) incubated for 1 hrs by fluorescence microplate reader
[9] = biological target: Tyrosine-protein kinase BTK (Homo sapiens, UniProt Q06187); assay: Inhibition of BTK (unknown origin) using peptide substrate incubated for 1 hrs in presence of ATP by fluorescence microplate reader
[10] = biological target: T5, Serine/threonine-protein kinase Chk1 (Homo sapiens) (UniProt O14757); conditions: MV4-11, dose 50-200 nM
T5 sequence (whole entry): T1 sequence (O14757 whole entry)
Description: Inhibition of CHK1 in human MV4-11 cells assessed as decrease in c-Myc protein expression level at 50 to 200 nM by Western blot analysis

[11] = biological target: T5, Serine/threonine-protein kinase Chk1 (Homo sapiens); conditions: MV4-11, dose 50-200 nM; remark: listed apart in the source
Description: Inhibition of CHK1 phosphorylation at S296 residue in human MV4-11 cells at 50 to 200 nM by Western blot analysis

[12] = biological target: T6, Serine/threonine-protein kinase 17B (Homo sapiens, UniProt O94768); assay: Inhibition of DRAK2 (unknown origin) expressed in Escherichia coli incubated for 2 hrs by ADP-Glo assay
T6 sequence (O94768 whole entry): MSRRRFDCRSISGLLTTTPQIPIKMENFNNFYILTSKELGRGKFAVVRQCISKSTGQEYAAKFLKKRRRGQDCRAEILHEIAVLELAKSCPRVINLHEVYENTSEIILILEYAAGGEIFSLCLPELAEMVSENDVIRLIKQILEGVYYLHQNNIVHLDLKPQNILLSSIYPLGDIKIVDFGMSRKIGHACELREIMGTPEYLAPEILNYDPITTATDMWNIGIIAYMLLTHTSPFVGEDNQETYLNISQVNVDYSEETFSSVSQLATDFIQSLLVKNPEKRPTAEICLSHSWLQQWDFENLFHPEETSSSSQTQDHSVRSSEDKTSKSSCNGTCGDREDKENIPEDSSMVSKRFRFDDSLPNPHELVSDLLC

Chain of hERG (KCNH2) (Q12809 whole entry): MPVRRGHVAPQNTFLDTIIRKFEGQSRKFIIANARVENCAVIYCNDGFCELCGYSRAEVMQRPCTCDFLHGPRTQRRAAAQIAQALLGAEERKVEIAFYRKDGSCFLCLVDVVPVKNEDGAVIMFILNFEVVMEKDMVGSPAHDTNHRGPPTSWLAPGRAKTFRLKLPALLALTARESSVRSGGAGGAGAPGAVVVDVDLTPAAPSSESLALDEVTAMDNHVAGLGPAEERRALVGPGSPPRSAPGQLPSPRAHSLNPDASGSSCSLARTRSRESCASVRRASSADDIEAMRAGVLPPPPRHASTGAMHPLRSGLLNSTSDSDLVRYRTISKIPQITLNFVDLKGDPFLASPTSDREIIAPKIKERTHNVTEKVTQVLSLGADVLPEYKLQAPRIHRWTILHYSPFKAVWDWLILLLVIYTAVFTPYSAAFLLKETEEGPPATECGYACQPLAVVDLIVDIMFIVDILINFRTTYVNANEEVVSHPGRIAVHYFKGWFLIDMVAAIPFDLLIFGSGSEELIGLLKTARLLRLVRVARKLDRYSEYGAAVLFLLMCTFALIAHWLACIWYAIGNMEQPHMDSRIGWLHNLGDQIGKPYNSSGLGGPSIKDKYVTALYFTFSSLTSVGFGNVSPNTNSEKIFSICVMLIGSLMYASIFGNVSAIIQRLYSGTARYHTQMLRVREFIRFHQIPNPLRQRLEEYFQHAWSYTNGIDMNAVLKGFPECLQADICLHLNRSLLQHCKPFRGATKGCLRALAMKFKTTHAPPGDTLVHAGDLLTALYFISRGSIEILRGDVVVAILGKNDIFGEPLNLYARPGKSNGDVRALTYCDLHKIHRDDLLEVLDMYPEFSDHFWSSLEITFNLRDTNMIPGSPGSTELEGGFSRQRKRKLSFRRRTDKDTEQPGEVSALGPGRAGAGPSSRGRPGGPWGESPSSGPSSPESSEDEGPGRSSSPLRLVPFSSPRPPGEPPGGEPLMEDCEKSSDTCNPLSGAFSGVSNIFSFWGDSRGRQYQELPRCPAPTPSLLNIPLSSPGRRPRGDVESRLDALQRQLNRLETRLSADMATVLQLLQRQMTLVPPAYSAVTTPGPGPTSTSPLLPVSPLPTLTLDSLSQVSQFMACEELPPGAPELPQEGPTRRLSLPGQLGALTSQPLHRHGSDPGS
Chain of Mast/stem cell growth factor receptor Kit (P10721 whole entry): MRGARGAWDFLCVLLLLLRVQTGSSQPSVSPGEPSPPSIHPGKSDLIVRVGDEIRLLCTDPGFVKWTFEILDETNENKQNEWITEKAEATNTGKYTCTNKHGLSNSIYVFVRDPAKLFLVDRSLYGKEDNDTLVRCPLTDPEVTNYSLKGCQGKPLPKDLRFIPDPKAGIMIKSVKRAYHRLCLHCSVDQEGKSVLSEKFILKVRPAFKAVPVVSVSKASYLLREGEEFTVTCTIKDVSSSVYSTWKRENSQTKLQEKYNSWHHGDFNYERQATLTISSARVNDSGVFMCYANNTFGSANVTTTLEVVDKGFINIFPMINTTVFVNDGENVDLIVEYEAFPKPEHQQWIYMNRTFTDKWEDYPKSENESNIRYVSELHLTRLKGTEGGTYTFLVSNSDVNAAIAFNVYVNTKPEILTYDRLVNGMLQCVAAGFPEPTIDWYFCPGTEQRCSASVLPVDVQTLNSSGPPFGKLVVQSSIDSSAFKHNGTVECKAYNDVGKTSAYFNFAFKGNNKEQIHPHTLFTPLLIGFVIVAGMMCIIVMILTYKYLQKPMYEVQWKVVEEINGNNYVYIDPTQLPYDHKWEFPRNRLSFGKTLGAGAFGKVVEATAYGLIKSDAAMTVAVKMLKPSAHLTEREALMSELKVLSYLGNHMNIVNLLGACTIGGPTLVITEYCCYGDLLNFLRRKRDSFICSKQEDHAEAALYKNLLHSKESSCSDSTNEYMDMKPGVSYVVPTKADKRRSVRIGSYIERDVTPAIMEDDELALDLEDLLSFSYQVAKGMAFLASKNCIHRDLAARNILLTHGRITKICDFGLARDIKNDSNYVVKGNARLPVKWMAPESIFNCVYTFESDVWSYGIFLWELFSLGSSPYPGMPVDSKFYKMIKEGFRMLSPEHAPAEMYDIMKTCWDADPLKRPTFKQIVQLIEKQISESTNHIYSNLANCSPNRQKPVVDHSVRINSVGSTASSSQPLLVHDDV
Chain of Tyrosine-protein kinase BTK (Q06187 whole entry): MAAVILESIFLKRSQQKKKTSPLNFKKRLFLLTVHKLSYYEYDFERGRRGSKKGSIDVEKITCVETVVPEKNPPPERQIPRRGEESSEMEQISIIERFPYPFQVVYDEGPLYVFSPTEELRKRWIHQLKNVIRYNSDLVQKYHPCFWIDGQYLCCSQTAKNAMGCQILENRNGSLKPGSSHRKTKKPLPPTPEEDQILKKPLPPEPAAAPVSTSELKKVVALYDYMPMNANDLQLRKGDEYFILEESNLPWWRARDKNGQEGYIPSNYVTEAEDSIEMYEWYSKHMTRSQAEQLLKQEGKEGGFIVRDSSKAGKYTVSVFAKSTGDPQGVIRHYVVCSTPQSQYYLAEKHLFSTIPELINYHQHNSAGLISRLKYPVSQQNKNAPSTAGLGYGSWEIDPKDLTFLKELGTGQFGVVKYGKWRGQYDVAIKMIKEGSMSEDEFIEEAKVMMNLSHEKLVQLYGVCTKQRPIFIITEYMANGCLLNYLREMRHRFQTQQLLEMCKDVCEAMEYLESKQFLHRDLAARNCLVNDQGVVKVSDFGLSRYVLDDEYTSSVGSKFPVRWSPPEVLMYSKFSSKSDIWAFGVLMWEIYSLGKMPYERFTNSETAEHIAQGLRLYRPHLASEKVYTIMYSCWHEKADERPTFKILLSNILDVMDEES
Chain of Epidermal growth factor receptor (P00533 whole entry): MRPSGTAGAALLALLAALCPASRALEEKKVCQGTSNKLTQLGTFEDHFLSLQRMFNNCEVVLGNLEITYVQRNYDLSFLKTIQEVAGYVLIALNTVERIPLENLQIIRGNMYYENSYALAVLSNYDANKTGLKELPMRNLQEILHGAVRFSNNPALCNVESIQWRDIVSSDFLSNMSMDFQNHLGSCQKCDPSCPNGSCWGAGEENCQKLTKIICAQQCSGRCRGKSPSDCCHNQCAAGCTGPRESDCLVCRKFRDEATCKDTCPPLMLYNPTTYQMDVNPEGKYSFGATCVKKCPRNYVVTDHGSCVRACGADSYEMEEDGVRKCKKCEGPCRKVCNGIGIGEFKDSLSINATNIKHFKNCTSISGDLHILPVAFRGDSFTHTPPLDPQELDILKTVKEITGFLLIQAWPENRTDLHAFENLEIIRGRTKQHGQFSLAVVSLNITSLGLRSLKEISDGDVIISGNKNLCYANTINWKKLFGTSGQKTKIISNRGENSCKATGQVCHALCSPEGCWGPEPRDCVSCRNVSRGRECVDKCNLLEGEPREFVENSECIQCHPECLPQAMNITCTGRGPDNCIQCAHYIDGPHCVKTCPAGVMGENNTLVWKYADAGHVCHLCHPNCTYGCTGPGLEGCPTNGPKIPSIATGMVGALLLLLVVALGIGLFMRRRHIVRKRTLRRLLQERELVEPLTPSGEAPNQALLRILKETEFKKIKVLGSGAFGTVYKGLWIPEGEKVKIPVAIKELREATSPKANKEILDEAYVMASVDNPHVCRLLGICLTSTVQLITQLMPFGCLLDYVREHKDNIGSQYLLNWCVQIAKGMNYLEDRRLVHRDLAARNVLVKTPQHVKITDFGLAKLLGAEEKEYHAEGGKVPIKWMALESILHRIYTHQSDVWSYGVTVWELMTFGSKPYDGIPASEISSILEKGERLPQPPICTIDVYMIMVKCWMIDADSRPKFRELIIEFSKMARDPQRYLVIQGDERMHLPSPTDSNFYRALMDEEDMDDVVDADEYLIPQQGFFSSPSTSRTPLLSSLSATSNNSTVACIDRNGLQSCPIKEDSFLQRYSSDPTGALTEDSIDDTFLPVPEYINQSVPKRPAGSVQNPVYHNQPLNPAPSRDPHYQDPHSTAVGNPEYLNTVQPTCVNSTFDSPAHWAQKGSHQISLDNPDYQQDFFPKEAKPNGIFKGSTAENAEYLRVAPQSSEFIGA
Chain of Serine/threonine-protein kinase pim-1 (P11309 whole entry): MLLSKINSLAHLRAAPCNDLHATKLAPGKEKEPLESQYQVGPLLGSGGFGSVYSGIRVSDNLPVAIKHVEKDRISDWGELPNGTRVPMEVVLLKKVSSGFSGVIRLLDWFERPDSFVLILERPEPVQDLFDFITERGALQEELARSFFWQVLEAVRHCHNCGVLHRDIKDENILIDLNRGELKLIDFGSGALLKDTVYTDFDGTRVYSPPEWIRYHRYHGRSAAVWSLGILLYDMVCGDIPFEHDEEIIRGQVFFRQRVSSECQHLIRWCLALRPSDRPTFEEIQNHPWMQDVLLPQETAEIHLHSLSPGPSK

SMILES	IC50 [1] [µM]	IC50 [2] [nM]	inhibition at 10 µM (hERG (KCNH2)) [%]	further results
NCCCNc1nc(Nc2ccc3c(c2)CCCN3S(=O)(=O)c2ccccc2)ncc1C(F)(F)F		166		
CS(=O)(=O)N1CCc2cc(Nc3ncc(C(F)(F)F)c(NCCCN)n3)ccc21	12.3	32.5	39.5	
CS(=O)(=O)N1Cc2ccc(Nc3ncc(C(F)(F)F)c(NCCCN)n3)cc2C1	21.3	35.2	23.2	
CC(=O)c1ccc(Nc2ncc(C(F)(F)F)c(NCCCN)n2)cc1		89.3		
NCCCNc1nc(Nc2ccc3c(c2)CCN(S(=O)(=O)C2CCCCC2)C3)ncc1C(F)(F)F		100		
NCCCNc1nc(Nc2ccc3c(c2)CCS3(=O)=O)ncc1C(F)(F)F		104		
CS(=O)(=O)N1CCOc2cc(Nc3ncc(C(F)(F)F)c(NCCCN)n3)ccc21		183		
NCCCNc1nc(Nc2ccc3c(c2)CCN(S(=O)(=O)c2ccccc2)C3)ncc1C(F)(F)F		133		
NCCCNc1nc(Nc2ccc3c(c2)CCCC3=O)ncc1C(F)(F)F	10.9	38.6	76.1	

Continued by falling IC50 [2], values first:

IC50 [1] [µM]	IC50 [2] [nM]	SMILES	inhibition at 10 µM (hERG (KCNH2)) [%]	further results
	237	NCCCNc1nc(Nc2ccc3c(c2)OCO3)ncc1C(F)(F)F		
	144	NCCCNc1nc(Nc2ccc3c(c2)CCC3=O)ncc1C(F)(F)F		
	93.6	NCCCNc1nc(Nc2ccc3c(c2)COC3=O)ncc1C(F)(F)F		
9.81	28.9	CS(=O)(=O)N1CCCc2cc(Nc3ncc(C(F)(F)F)c(NCCCN)n3)ccc21	64.2	
10.5	25.6	CS(=O)(=O)N1CCc2cc(Nc3ncc(C(F)(F)F)c(NCCCN)n3)ccc2C1	36.1	IC50 [3]: > 10 µM; IC50 [4]: > 10 µM; IC50 [5]: 865 nM; IC50 [6]: 834.85 nM; IC50 (Aurora kinase A): 1860 nM; IC50 [7]: > 10 µM; IC50 [8]: 833 nM; IC50 [9]: > 10 µM; inhibition [10]: Active; inhibition [11]: Active; IC50 [12]: > 10 µM
